Patent publication US9393313B2, “Drug entrapment efficiency and sustained drug release of chloramphenicol loaded polymeric-iron nanoparticles” (priority 2014, dated 2016)

Columns and labels:
[1] = In-vitro drug release / drug entrapment efficiency in PBS by UV spectroscopy at 278 nm; type: physicochemical
Experimental: 30 mg of CHL-loaded nanoparticles were dispersed and homogenized in 100 mL of PBS, pH 7.4 (purchased from Sigma Aldrich) which releases all entrapped CHL from the nanocomposite. Before homogenization, nanocomposite formulation was cleared from free drug molecules by washing with distilled water. Ultraviolet (UV) spectroscopy at a wavelength of 278 nm was employed for completely developing entire content of entrapped chloramphenicol in triplicates. A solution of drug-free nanocomposite (30 mg) in distilled water was employed as a reference, thus reducing the chances of interference by excipients and polymer used to prepare the nanocomposite. Following equation was utilized to evaluate drug entrapment efficiency (DEE) value, as was reported in a paper by Harilall S, Choonara Y E. et al. %DEE=D1/D2*100 Where D1 is the actual quantity of drug (mg/100 mL) and D2 is the theoretical quantity of drug (mg/100 mL) entrapped within the formulation. Precision of the results was made certain by calculating the average DEE of five samples.
An in-vitro drug release study was conducted on the basis of a paper reported by Harilall S, Choonara Y E. et al. for the zidovudine release study. CHL-loaded nanocomposite, nanocomposite and commercially available CHL were submerged in 100 mL PBS discretely and then sited these set of preparations in an orbital shaking incubator (20 rpms, 37° C.). Portions of these preparations were taken at altered time interims for 48 hours and substituted by equal quantities of buffer solution and were evaluated by UV spectroscopy for CHL absorption at a wavelength of 278 nm.

Gram positive sarccina = test: Anti-bacterial activity, agar well zone of inhibition; type: cell-based; details: 50 μL of 5 mg/mL suspension in 0.4 cm wells, 37° C. for 48 hours
Experimental: (§1) Nutrient broth was prepared by dissolving 0.2 g in 25 mL distilled water in erlenmeyer flask. The flask was then sterilized in an autoclave at the 121° C. for 15 minutes after applying cotton plug to cover its mouth. This growth media was utilized to prepare inoculums of all strains of bacteria. After adding a loop full of bacterial strain in it, the flask was placed in shaking incubator at 37° C. for the night. The plates were inoculated after the incubated broth was diluted up to 10^−2.
(§2) 0.8 g nutrient broth and 2 g of agar were added to 100 mL autoclaved water in an erlenmeyer flask. Apply cotton plug to the flask and then sterilize it in an autoclave at the 121° C. for 15 minutes. Each petri plate was poured with 15-20 mL of agar which was then solidified and inoculated with the bacterial strain. 50 μL of sample suspension was poured in wells that have the diameter of 0.4 cm. All sample suspensions were made by adding 5 mg of product in 1 mL distilled water. Zones of inhibition were observed after keeping these plates at 37° C. for 48 hours.

[2] = system: Gram positive cocci (Separate); test: as above; type: cell-based; details: 48 h
Experimental: as §1, §2

[3] = system: Gram positive Streptococci; test: as above; type: cell-based; details: 50 μL of 5 mg/mL suspension in 0.4 cm wells, 37° C. for 48 hours
Experimental: as §1, §2

O=C(N[C@H](CO)[C@H](O)c1ccc([N+](=O)[O-])cc1)C(Cl)Cl [CHL, chloramphenicol]
Time in which almost the whole drug is released ([1]; PBS): 3 to 4 h
DEE (FIG. 7, in-vitro drug release) ([1]; first hour of exposure to PBS, 37° C.): 91%
DEE (FIG. 7, in-vitro drug release) ([1]; fourth hour in PBS (third of the next three hours)): 97%
DEE (FIG. 7, in-vitro drug release) ([1]; second hour in PBS (first of the next three hours)): 94%
DEE (FIG. 7, in-vitro drug release) ([1]; third hour in PBS (second of the next three hours)): 97%
zone of inhibition at 5000 µg/mL (Gram positive sarccina): 2 mm
zone of inhibition at 5000 µg/mL [2]: 4 mm
zone of inhibition at 5000 µg/mL [3]: 6 mm
